According to the NIST ThermoML archive (doi:10.1016/j.jct.2018.02.014):
± gives the expanded uncertainty stated by the source.

Experiment: activity coefficient (dimensionless); of the first substance listed, at infinite dilution; xn = mol fraction of the nth substance listed
Conditions: 101.33 kPa, Liquid, Chromatography, x1 = 0

CC1CCCCC1 [methylcyclohexane] + CC[N+]1(C)CCOCC1.N#CN=C=[N-]
activity coefficient (318.15 K): 288 ± 20
activity coefficient (328.15 K): 263 ± 18
activity coefficient (338.15 K): 242 ± 17
activity coefficient (348.15 K): 224 ± 15
activity coefficient (358.15 K): 208 ± 14
activity coefficient (368.15 K): 194 ± 13

c1ccccc1 [benzene] + CC[N+]1(C)CCOCC1.N#CN=C=[N-]
activity coefficient (318.15 K): 4.46 ± 0.3
activity coefficient (328.15 K): 4.62 ± 0.31
activity coefficient (338.15 K): 4.76 ± 0.32
activity coefficient (348.15 K): 4.91 ± 0.33
activity coefficient (358.15 K): 5.05 ± 0.34
activity coefficient (368.15 K): 5.2 ± 0.35

CCCOCCC [dipropyl ether] + CC[N+]1(C)CCOCC1.N#CN=C=[N-]
activity coefficient (328.15 K): 110 ± 8
activity coefficient (338.15 K): 112 ± 8
activity coefficient (348.15 K): 114 ± 8
activity coefficient (358.15 K): 116 ± 8
activity coefficient (368.15 K): 119 ± 8

CC(C)CC(C)(C)C [2,2,4-trimethylpentane] + CC[N+]1(C)CCOCC1.N#CN=C=[N-]
activity coefficient (298.15 K): 1220 ± 84
activity coefficient (308.15 K): 1070 ± 74
activity coefficient (318.15 K): 951 ± 66
activity coefficient (328.15 K): 853 ± 59
activity coefficient (338.15 K): 768 ± 53

C1COCCO1 [1,4-dioxane] + CC[N+]1(C)CCOCC1.N#CN=C=[N-]
activity coefficient (318.15 K): 1.57 ± 0.1
activity coefficient (328.15 K): 1.69 ± 0.11
activity coefficient (338.15 K): 1.82 ± 0.12
activity coefficient (348.15 K): 1.94 ± 0.13
activity coefficient (358.15 K): 2.06 ± 0.14
activity coefficient (368.15 K): 2.19 ± 0.15

CC#N [acetonitrile] + CC[N+]1(C)CCOCC1.N#CN=C=[N-]
activity coefficient (318.15 K): 0.966 ± 0.061
activity coefficient (328.15 K): 1.01 ± 0.06
activity coefficient (338.15 K): 1.06 ± 0.07
activity coefficient (348.15 K): 1.11 ± 0.07
activity coefficient (358.15 K): 1.16 ± 0.07
activity coefficient (368.15 K): 1.21 ± 0.08

C=COC(C)=O [vinyl acetate] + CC[N+]1(C)CCOCC1.N#CN=C=[N-]
activity coefficient (318.15 K): 4.22 ± 0.29
activity coefficient (328.15 K): 4.41 ± 0.3
activity coefficient (338.15 K): 4.6 ± 0.31
activity coefficient (348.15 K): 4.78 ± 0.33
activity coefficient (358.15 K): 4.97 ± 0.34
activity coefficient (368.15 K): 5.15 ± 0.35

CC(C)O [propan-2-ol] + CC[N+]1(C)CCOCC1.N#CN=C=[N-]
activity coefficient (318.15 K): 2.02 ± 0.14
activity coefficient (328.15 K): 2 ± 0.14
activity coefficient (338.15 K): 1.99 ± 0.14
activity coefficient (348.15 K): 1.97 ± 0.13
activity coefficient (358.15 K): 1.96 ± 0.13
activity coefficient (368.15 K): 1.95 ± 0.13

CC(C)=O [acetone] + CC[N+]1(C)CCOCC1.N#CN=C=[N-]
activity coefficient (318.15 K): 1.61 ± 0.11
activity coefficient (328.15 K): 1.7 ± 0.11
activity coefficient (338.15 K): 1.8 ± 0.12
activity coefficient (348.15 K): 1.9 ± 0.13
activity coefficient (358.15 K): 1.99 ± 0.14
activity coefficient (368.15 K): 2.09 ± 0.14

CCC(=O)OC [methyl propanoate] + CC[N+]1(C)CCOCC1.N#CN=C=[N-]
activity coefficient (318.15 K): 5.12 ± 0.35
activity coefficient (328.15 K): 5.36 ± 0.37
activity coefficient (338.15 K): 5.59 ± 0.38
activity coefficient (348.15 K): 5.82 ± 0.4
activity coefficient (358.15 K): 6.04 ± 0.41
activity coefficient (368.15 K): 6.26 ± 0.43

C=CCCCC [hex-1-ene] + CC[N+]1(C)CCOCC1.N#CN=C=[N-]
activity coefficient (298.15 K): 193 ± 13
activity coefficient (308.15 K): 177 ± 12
activity coefficient (318.15 K): 163 ± 11
activity coefficient (328.15 K): 152 ± 10
activity coefficient (338.15 K): 141 ± 10

C1CCCCCCC1 [cyclooctane] + CC[N+]1(C)CCOCC1.N#CN=C=[N-]
activity coefficient (318.15 K): 313 ± 22
activity coefficient (328.15 K): 293 ± 20
activity coefficient (338.15 K): 273 ± 19
activity coefficient (348.15 K): 257 ± 18
activity coefficient (358.15 K): 242 ± 17
activity coefficient (368.15 K): 229 ± 16

C#CCCCCC [1-heptyne] + CC[N+]1(C)CCOCC1.N#CN=C=[N-]
activity coefficient (318.15 K): 44.9 ± 3.1
activity coefficient (328.15 K): 46.3 ± 3.2
activity coefficient (338.15 K): 47.6 ± 3.3
activity coefficient (348.15 K): 49 ± 3.4
activity coefficient (358.15 K): 50.3 ± 3.4
activity coefficient (368.15 K): 51.6 ± 3.5

CCOCC [diethyl ether] + CC[N+]1(C)CCOCC1.N#CN=C=[N-]
activity coefficient (328.15 K): 28.5 ± 1.9
activity coefficient (338.15 K): 29.3 ± 2
activity coefficient (348.15 K): 30.1 ± 2.1
activity coefficient (358.15 K): 30.8 ± 2.1
activity coefficient (368.15 K): 31.6 ± 2.2

C1=CCCCC1 [cyclohexene] + CC[N+]1(C)CCOCC1.N#CN=C=[N-]
activity coefficient (318.15 K): 50.7 ± 3.5
activity coefficient (328.15 K): 50 ± 3.4
activity coefficient (338.15 K): 49.4 ± 3.4

C#CCCC [1-pentyne] + CC[N+]1(C)CCOCC1.N#CN=C=[N-]
activity coefficient (318.15 K): 14.3 ± 1
activity coefficient (328.15 K): 14.8 ± 1
activity coefficient (338.15 K): 15.4 ± 1.1
activity coefficient (348.15 K): 15.9 ± 1.1
activity coefficient (358.15 K): 16.5 ± 1.1
activity coefficient (368.15 K): 17 ± 1.2

CCCCCC [hexane] + CC[N+]1(C)CCOCC1.N#CN=C=[N-]
activity coefficient (298.15 K): 608 ± 42
activity coefficient (308.15 K): 539 ± 37
activity coefficient (318.15 K): 482 ± 33

Cc1ccccc1C [1,2-dimethylbenzene] + CC[N+]1(C)CCOCC1.N#CN=C=[N-]
activity coefficient (318.15 K): 10.8 ± 0.7
activity coefficient (328.15 K): 11.1 ± 0.8
activity coefficient (338.15 K): 11.4 ± 0.8
activity coefficient (348.15 K): 11.7 ± 0.8
activity coefficient (358.15 K): 12 ± 0.8
activity coefficient (368.15 K): 12.4 ± 0.8

CCCCCCCC [octane] + CC[N+]1(C)CCOCC1.N#CN=C=[N-]
activity coefficient (318.15 K): 1130 ± 78
activity coefficient (328.15 K): 1010 ± 70
activity coefficient (338.15 K): 903 ± 62
activity coefficient (348.15 K): 814 ± 56
activity coefficient (358.15 K): 737 ± 51
activity coefficient (368.15 K): 672 ± 46

C=CCCCCC [1-heptene] + CC[N+]1(C)CCOCC1.N#CN=C=[N-]
activity coefficient (318.15 K): 288 ± 20
activity coefficient (328.15 K): 268 ± 18
activity coefficient (338.15 K): 251 ± 17
activity coefficient (348.15 K): 236 ± 16
activity coefficient (358.15 K): 222 ± 15
activity coefficient (368.15 K): 210 ± 14

C=C(C)c1ccccc1 [(1-methylethenyl)benzene] + CC[N+]1(C)CCOCC1.N#CN=C=[N-]
activity coefficient (318.15 K): 10.5 ± 0.7
activity coefficient (328.15 K): 11.1 ± 0.8
activity coefficient (338.15 K): 11.6 ± 0.8
activity coefficient (348.15 K): 12.1 ± 0.8
activity coefficient (358.15 K): 12.6 ± 0.9
activity coefficient (368.15 K): 13.1 ± 0.9

CCCCCCCCCC [decane] + CC[N+]1(C)CCOCC1.N#CN=C=[N-]
activity coefficient (318.15 K): 2230 ± 150
activity coefficient (328.15 K): 2030 ± 140
activity coefficient (338.15 K): 1880 ± 130
activity coefficient (348.15 K): 1740 ± 120
activity coefficient (358.15 K): 1610 ± 110
activity coefficient (368.15 K): 1500 ± 100
